Numbered stars: 1 amine (or outer) side, 2 acyl side, 3 side chain; on linkers, the order of the positions; unused ones are H or OH. Bridge positions count the residues as written; N and C are the ends. Square brackets hold non-standard residues; d marks the D form. Side chains are listed from the residue outwards. Peptide text beside a SMILES is read from it. * marks the point of attachment. C20 diacid = O=C(O)CCCCCCCCCCCCCCCCCCC(=O)*; C18 diacid = O=C(O)CCCCCCCCCCCCCCCCC(=O)*; γGlu = O=C(O)[C@H](CCC(=O)[*:2])N[*:1]; Hyp = O=C(O)[C@@H]1C[C@@H](O)CN1; AEEA = NCCOCCOCC(=O)O; Aoc = NCCCCCCCC(=O)O
The compounds below were run against T1, human amylin receptor (Homo sapiens, UniProt O60896+P30988) (assay: Luciferase assay of amylin derivatives in amylin receptor/CRE-luc CHO cell line). Details: CHO-K1/Ga15/AMY3 CRE-luc cells, 24 hours incubation, F12 medium containing 10% FBS; read-out: EC50.
T1 construct: host or cells: CHO-K1/Ga15/AMY3 cells, further stably transfected with a CRE-luciferase plasmid
T1 sequence (P30988 25-474): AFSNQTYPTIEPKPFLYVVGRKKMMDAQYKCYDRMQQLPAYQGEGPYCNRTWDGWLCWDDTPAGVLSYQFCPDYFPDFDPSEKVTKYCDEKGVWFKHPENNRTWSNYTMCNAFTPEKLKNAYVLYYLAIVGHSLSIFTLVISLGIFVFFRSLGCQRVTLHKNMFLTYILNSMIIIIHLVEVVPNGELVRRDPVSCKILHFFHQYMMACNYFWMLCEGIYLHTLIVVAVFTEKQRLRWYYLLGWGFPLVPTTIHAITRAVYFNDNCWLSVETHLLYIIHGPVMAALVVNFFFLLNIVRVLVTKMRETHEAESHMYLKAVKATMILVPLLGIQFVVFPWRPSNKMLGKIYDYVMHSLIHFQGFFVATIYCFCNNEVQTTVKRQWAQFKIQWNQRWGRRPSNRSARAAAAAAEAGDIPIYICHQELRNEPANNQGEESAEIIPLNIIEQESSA
T1 sequence (O60896 24-148 partner): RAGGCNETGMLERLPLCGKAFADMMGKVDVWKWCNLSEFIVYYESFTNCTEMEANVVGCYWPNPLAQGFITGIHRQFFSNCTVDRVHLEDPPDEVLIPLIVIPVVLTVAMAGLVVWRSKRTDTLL
Type: cell-based
Procedure: The experiment was intended to detect the activity or efficacy of the amylin derivatives on a human amylin receptor in vitro by luciferase assay.
50 μL of growth medium (F12 medium containing 10% FBS) was added into each well of a white 96-well plate, and the stably transfected amylin/CRE-lue CHO cells were inoculated into the white 96-well plate at a density of about 20,000 cells/well for activity determination.

Row | EC50 [nM] | Structure (SMILES)
1 | 0.01 | CC[C@H](C)[C@H](NC(=O)[C@@H]1CCCN1C(=O)[C@H](CCCCNC(=O)COCCOCCNC(=O)COCCOCCNC(=O)CC[C@H](NC(=O)CCCCCCCCCCCCCCCCC(=O)O)C(=O)O)NC(=O)[C@H](CC(C)C)NC(=O)[C@H](CC(N)=O)NC(=O)[C@H](CC(N)=O)NC(=O)[C@H](CO)NC(=O)[C@H](CO)NC(=O)[C@H](Cc1c[nH]cn1)NC(=O)[C@H](CCCNC(=N)N)NC(=O)[C@H](CC(C)C)NC(=O)[C@H](Cc1ccccc1)NC(=O)[C@H](CC(=O)O)NC(=O)[C@H](C)NC(=O)[C@H](CC(C)C)NC(=O)[C@H](CCCNC(=N)N)NC(=O)[C@H](CCC(N)=O)NC(=O)[C@@H](NC(=O)[C@H](C)NC(=O)[C@@H]1CSSC[C@H](NC(=O)[C@@H](N)CCCNC(=N)N)C(=O)N[C@@H](CC(N)=O)C(=O)N[C@@H]([C@@H](C)O)C(=O)N[C@@H](C)C(=O)N[C@@H]([C@@H](C)O)C(=O)N1)[C@@H](C)O)C(=O)N[C@@H](CC(C)C)C(=O)N1CCC[C@H]1C(=O)N1CCC[C@H]1C(=O)N[C@H](C(=O)N[C@@H](CC(N)=O)C(=O)N[C@H](C(=O)NCC(=O)N[C@@H](CO)C(=O)N[C@@H](CC(N)=O)C(=O)N[C@H](C(=O)N1C[C@H](O)C[C@H]1C(N)=O)[C@@H](C)O)C(C)C)[C@@H](C)O [PD109] (H-RCNTATCATQRLADFLRHSSNNLK([AEEA-AEEA-γGlu-C18 diacid])PILPPTNVGSNT[Hyp]-NH2; disulfide 2-7)
2 | 0.048 | CC[C@H](C)[C@H](NC(=O)[C@@H]1CCCN1C(=O)CNC(=O)[C@H](CC(C)C)NC(=O)[C@H](CC(N)=O)NC(=O)[C@H](CC(N)=O)NC(=O)[C@H](CO)NC(=O)[C@H](CO)NC(=O)[C@H](Cc1c[nH]cn1)NC(=O)[C@H](CCCNC(=N)N)NC(=O)[C@H](CC(C)C)NC(=O)[C@H](Cc1ccccc1)NC(=O)[C@H](CC(=O)O)NC(=O)[C@H](C)NC(=O)[C@H](CC(C)C)NC(=O)[C@H](CCCNC(=N)N)NC(=O)[C@H](CCC(N)=O)NC(=O)[C@@H](NC(=O)[C@H](C)NC(=O)[C@@H]1CSSC[C@H](NC(=O)[C@H](CCCCN)NC(=O)COCCOCCNC(=O)CC[C@H](NC(=O)CCCCCCCCCCCCCCCCCCC(=O)O)C(=O)O)C(=O)N[C@@H](CC(N)=O)C(=O)N[C@@H]([C@@H](C)O)C(=O)N[C@@H](C)C(=O)N[C@@H]([C@@H](C)O)C(=O)N1)[C@@H](C)O)C(=O)N[C@@H](CC(C)C)C(=O)N1CCC[C@H]1C(=O)N1CCC[C@H]1C(=O)N[C@H](C(=O)N[C@@H](CC(N)=O)C(=O)N[C@H](C(=O)NCC(=O)N[C@@H](CO)C(=O)N[C@@H](CC(N)=O)C(=O)N[C@H](C(=O)N1C[C@H](O)C[C@H]1C(N)=O)[C@@H](C)O)C(C)C)[C@@H](C)O [PD122] ({C20 diacid-γGlu-AEEA}-KCNTATCATQRLADFLRHSSNNLGPILPPTNVGSNT[Hyp]-NH2; disulfide 2-7)
3 | 0.008 | CC[C@H](C)[C@H](NC(=O)[C@@H]1CCCN1C(=O)CNC(=O)[C@H](CC(C)C)NC(=O)[C@H](CC(N)=O)NC(=O)[C@H](CC(N)=O)NC(=O)[C@H](CO)NC(=O)[C@H](CO)NC(=O)[C@H](Cc1c[nH]cn1)NC(=O)[C@H](CCCNC(=N)N)NC(=O)[C@H](CC(C)C)NC(=O)[C@H](Cc1ccccc1)NC(=O)[C@H](CC(=O)O)NC(=O)[C@H](C)NC(=O)[C@H](CC(C)C)NC(=O)[C@H](CCCNC(=N)N)NC(=O)[C@H](CCC(N)=O)NC(=O)[C@@H](NC(=O)[C@H](C)NC(=O)[C@@H]1CSSC[C@H](NC(=O)[C@H](CCCCN)NC(=O)CC[C@H](NC(=O)CCCCCCCCCCCCCCCCC(=O)O)C(=O)O)C(=O)N[C@@H](CC(N)=O)C(=O)N[C@@H]([C@@H](C)O)C(=O)N[C@@H](C)C(=O)N[C@@H]([C@@H](C)O)C(=O)N1)[C@@H](C)O)C(=O)N[C@@H](CC(C)C)C(=O)N1CCC[C@H]1C(=O)N1CCC[C@H]1C(=O)N[C@H](C(=O)N[C@@H](CC(N)=O)C(=O)N[C@H](C(=O)NCC(=O)N[C@@H](CO)C(=O)N[C@@H](CC(N)=O)C(=O)N[C@H](C(=O)N1C[C@H](O)C[C@H]1C(N)=O)[C@@H](C)O)C(C)C)[C@@H](C)O [PD124] ({C18 diacid-γGlu}-KCNTATCATQRLADFLRHSSNNLGPILPPTNVGSNT[Hyp]-NH2; disulfide 2-7)
4 | 0.046 | CC[C@H](C)[C@H](NC(=O)[C@@H]1CCCN1C(=O)CCCCCCCNC(=O)[C@H](CC(C)C)NC(=O)[C@H](CC(N)=O)NC(=O)[C@H](CC(N)=O)NC(=O)[C@H](CO)NC(=O)[C@H](CO)NC(=O)[C@H](Cc1c[nH]cn1)NC(=O)[C@H](CCCNC(=N)N)NC(=O)[C@H](CC(C)C)NC(=O)[C@H](Cc1ccccc1)NC(=O)[C@H](CC(=O)O)NC(=O)[C@H](C)NC(=O)[C@H](CC(C)C)NC(=O)[C@H](CCCNC(=N)N)NC(=O)[C@H](CCC(N)=O)NC(=O)[C@@H](NC(=O)[C@H](C)NC(=O)[C@@H]1CSSC[C@H](NC(=O)[C@H](CCCCN)NC(=O)CC[C@H](NC(=O)CCCCCCCCCCCCCCCCCCC(=O)O)C(=O)O)C(=O)N[C@@H](CC(N)=O)C(=O)N[C@@H]([C@@H](C)O)C(=O)N[C@@H](C)C(=O)N[C@@H]([C@@H](C)O)C(=O)N1)[C@@H](C)O)C(=O)N[C@@H](CC(C)C)C(=O)N1CCC[C@H]1C(=O)N1CCC[C@H]1C(=O)N[C@H](C(=O)N[C@@H](CC(N)=O)C(=O)N[C@H](C(=O)NCC(=O)N[C@@H](CO)C(=O)N[C@@H](CC(N)=O)C(=O)N[C@H](C(=O)N1CCC[C@H]1C(N)=O)[C@@H](C)O)C(C)C)[C@@H](C)O [PD174] ({C20 diacid-γGlu}-KCNTATCATQRLADFLRHSSNNL[Aoc]PILPPTNVGSNTP-NH2; disulfide 2-7)
5 | 0.04 | CC[C@H](C)[C@H](NC(=O)[C@@H]1CCCN1C(=O)[C@H](CCCCNC(=O)CC[C@H](NC(=O)CCCCCCCCCCCCCCCCCCC(=O)O)C(=O)O)NC(=O)[C@H](CC(C)C)NC(=O)[C@H](CC(N)=O)NC(=O)[C@H](CC(N)=O)NC(=O)[C@H](CO)NC(=O)[C@H](CO)NC(=O)[C@H](Cc1c[nH]cn1)NC(=O)[C@H](CCCNC(=N)N)NC(=O)[C@H](CC(C)C)NC(=O)[C@H](Cc1ccccc1)NC(=O)[C@H](CC(=O)O)NC(=O)[C@H](C)NC(=O)[C@H](CC(C)C)NC(=O)[C@H](CCCNC(=N)N)NC(=O)[C@H](CCC(N)=O)NC(=O)[C@@H](NC(=O)[C@H](C)NC(=O)[C@@H]1CSSC[C@H](NC(=O)[C@@H](N)CCCCN)C(=O)N[C@@H](CC(N)=O)C(=O)N[C@@H]([C@@H](C)O)C(=O)N[C@@H](C)C(=O)N[C@@H]([C@@H](C)O)C(=O)N1)[C@@H](C)O)C(=O)N[C@@H](CC(C)C)C(=O)N1CCC[C@H]1C(=O)N1CCC[C@H]1C(=O)N[C@H](C(=O)N[C@@H](CC(N)=O)C(=O)N[C@H](C(=O)NCC(=O)N[C@@H](CO)C(=O)N[C@@H](CC(N)=O)C(=O)N[C@H](C(=O)N1C[C@H](O)C[C@H]1C(N)=O)[C@@H](C)O)C(C)C)[C@@H](C)O [PD076] (H-KCNTATCATQRLADFLRHSSNNLK([γGlu-C20 diacid])PILPPTNVGSNT[Hyp]-NH2; disulfide 2-7)
6 | 0.029 | CC[C@H](C)[C@H](NC(=O)[C@@H]1CCCN1C(=O)CNC(=O)[C@H](Cc1ccccc1)NC(=O)[C@H](CC(N)=O)NC(=O)[C@H](CC(N)=O)NC(=O)[C@H](CO)NC(=O)[C@H](CO)NC(=O)[C@H](Cc1c[nH]cn1)NC(=O)[C@@H](NC(=O)[C@H](CC(C)C)NC(=O)[C@H](Cc1ccccc1)NC(=O)[C@H](CC(N)=O)NC(=O)[C@H](C)NC(=O)[C@H](CC(C)C)NC(=O)[C@H](CCCNC(=N)N)NC(=O)[C@H](CCC(N)=O)NC(=O)[C@@H](NC(=O)[C@H](C)NC(=O)[C@@H]1CSSC[C@H](NC(=O)[C@H](CCCCN)NC(=O)CC[C@H](NC(=O)CCCCCCCCCCCCCCCCCCC(=O)O)C(=O)O)C(=O)N[C@@H](CC(N)=O)C(=O)N[C@@H]([C@@H](C)O)C(=O)N[C@@H](C)C(=O)N[C@@H]([C@@H](C)O)C(=O)N1)[C@@H](C)O)C(C)C)C(=O)N[C@@H](CC(C)C)C(=O)N1CCC[C@H]1C(=O)N1CCC[C@H]1C(=O)N[C@H](C(=O)N[C@@H](CC(N)=O)C(=O)N[C@H](C(=O)NCC(=O)N[C@@H](CO)C(=O)N[C@@H](CC(N)=O)C(=O)N[C@H](C(=O)N[C@@H](Cc1ccc(O)cc1)C(N)=O)[C@@H](C)O)C(C)C)[C@@H](C)O [PD156] ({C20 diacid-γGlu}-KCNTATCATQRLANFLVHSSNNFGPILPPTNVGSNTY-NH2; disulfide 2-7 (inferred))
7 | 0.033 | CC[C@H](C)[C@H](NC(=O)[C@@H]1CCCN1C(=O)CNC(=O)[C@H](CC(C)C)NC(=O)[C@H](CC(N)=O)NC(=O)[C@H](CC(N)=O)NC(=O)[C@H](CCCCNC(=O)COCCOCCNC(=O)CC[C@H](NC(=O)CCCCCCCCCCCCCCCCCCC(=O)O)C(=O)O)NC(=O)[C@H](CO)NC(=O)[C@H](Cc1c[nH]cn1)NC(=O)[C@H](CCCNC(=N)N)NC(=O)[C@H](CC(C)C)NC(=O)[C@H](Cc1ccccc1)NC(=O)[C@H](CC(=O)O)NC(=O)[C@H](C)NC(=O)[C@H](CC(C)C)NC(=O)[C@H](CCCNC(=N)N)NC(=O)[C@H](CCC(N)=O)NC(=O)[C@@H](NC(=O)[C@H](C)NC(=O)[C@@H]1CSSC[C@H](NC(=O)[C@@H](N)CCCNC(=N)N)C(=O)N[C@@H](CC(N)=O)C(=O)N[C@@H]([C@@H](C)O)C(=O)N[C@@H](C)C(=O)N[C@@H]([C@@H](C)O)C(=O)N1)[C@@H](C)O)C(=O)N[C@@H](CC(C)C)C(=O)N1CCC[C@H]1C(=O)N1CCC[C@H]1C(=O)N[C@H](C(=O)N[C@@H](CC(N)=O)C(=O)N[C@H](C(=O)NCC(=O)N[C@@H](CO)C(=O)N[C@@H](CC(N)=O)C(=O)N[C@H](C(=O)N1C[C@H](O)C[C@H]1C(N)=O)[C@@H](C)O)C(C)C)[C@@H](C)O [PD116] (H-RCNTATCATQRLADFLRHSK([AEEA-γGlu-C20 diacid])NNLGPILPPTNVGSNT[Hyp]-NH2; disulfide 2-7)
